Results as given in US9096560B2, “5-heterocyclylalkyl-3-hydroxy-2-phenylcyclopent-2-enones as herbicides” (Syngenta Limited, priority 2008, dated 2015).

Assays:
Assay type in all cases: in vivo
Lolium perenne (LOLPE) [1] = assay: Example B pre-emergence herbicidal test, LOLPE; conditions: Lolium perenne, 312 h, rate 250 g/ha, evaluated after 13 days, 100=total damage to plant, 0=no damage to plant
Protocol: (§1) Seeds of a variety of test species were sown in standard soil in pots. After cultivation for one day (pre-emergence) or after 8 days cultivation (post-emergence) under controlled conditions in a glasshouse (at 24/16° C., day/night; 14 hours light; 65% humidity), the plants were sprayed with an aqueous spray solution derived from the formulation of the technical active ingredient in acetone/water (50:50) solution containing 0.5% Tween 20 (polyoxyethelyene sorbitan monolaurate, CAS RN 9005-64-5). The test plants were then grown in a glasshouse under controlled conditions in a glasshouse (at 24/16° C., day/night; 14 hours light; 65% humidity) and watered twice daily. After 13 days for pre and post-emergence, the test was evaluated (100=total damage to plant; 0=no damage to plant). Lolium perenne (LOLPE), Alopecurus myosuroides (ALOMY), Echinochloa crus-galli (ECHCG), Avena fatua (AVEFA) Pre-Emergence Activity

[2] = test system: Alopecurus myosuroides (ALOMY); assay: Example B pre-emergence herbicidal test, ALOMY; conditions: Alopecurus myosuroides, 312 h, rate 250 g/ha, evaluated after 13 days, 100=total damage to plant, 0=no damage to plant
Protocol: as §1

[3] = test system: Echinochloa crus-galli (ECHCG); assay: Example B pre-emergence herbicidal test, ECHCG; conditions: Echinochloa crus-galli, 312 h, rate 250 g/ha, evaluated after 13 days, 100=total damage to plant, 0=no damage to plant
Protocol: as §1

Avena fatua (AVEFA) [4] = assay: Example B pre-emergence herbicidal test, AVEFA; conditions: Avena fatua, 312 h, rate 250 g/ha, evaluated after 13 days, 100=total damage to plant, 0=no damage to plant
Protocol: as §1

Lolium perenne (LOLPE) [5] = assay: Example B post-emergence herbicidal test, LOLPE; conditions: Lolium perenne, 312 h, rate 250 g/ha, evaluated after 13 days, scale 0-100, read-out: Post-emergence activity LOLPE (100=total damage to plant; 0=no damage to plant)
Protocol: as §1, with “Post-Emergence” for “Pre-Emergence”

[6] = test system: Alopecurus myosuroides (ALOMY); assay: Example B post-emergence herbicidal test, ALOMY; conditions: Alopecurus myosuroides, 312 h, rate 250 g/ha, evaluated after 13 days, scale 0-100, read-out: Post-emergence activity ALOMY (100=total damage to plant; 0=no damage to plant)
Protocol: as §1, with “Post-Emergence” for “Pre-Emergence”

[7] = test system: Echinochloa crus-galli (ECHCG); assay: Example B post-emergence herbicidal test, ECHCG; conditions: Echinochloa crus-galli, 312 h, rate 250 g/ha, evaluated after 13 days, scale 0-100, read-out: Post-emergence activity ECHCG (100=total damage to plant; 0=no damage to plant)
Protocol: as §1, with “Post-Emergence” for “Pre-Emergence”

Avena fatua (AVEFA) [8] = assay: Example B post-emergence herbicidal test, AVEFA; conditions: Avena fatua, 312 h, rate 250 g/ha, evaluated after 13 days, scale 0-100, read-out: Post-emergence activity AVEFA (100=total damage to plant; 0=no damage to plant)
Protocol: as §1, with “Post-Emergence” for “Pre-Emergence”

Structure (SMILES) | pest or weed control at 250 g/ha (Lolium perenne (LOLPE) [1]) [%] | pest or weed control at 250 g/ha [2] [%] | pest or weed control at 250 g/ha [3] [%] | pest or weed control at 250 g/ha (Avena fatua (AVEFA) [4]) [%] | pest or weed control at 250 g/ha (Lolium perenne (LOLPE) [5]) [%] | pest or weed control at 250 g/ha [6] [%] | pest or weed control at 250 g/ha [7] [%] | pest or weed control at 250 g/ha (Avena fatua (AVEFA) [8]) [%]
Cc1cc(C)c(C2=C(OC(=O)OC(C)C)CC(CC3CCOC3)C2=O)c(C)c1 (centres unmarked) [Compound P31] | 100 | 100 | 100 | 90 | 100 | 90 | 100 | 90
Cc1cc(C)c(C2=C(OC(=O)C(C)(C)C)CC(CCC3CCOCC3)C2=O)c(C)c1 (centres unmarked) [Compound P34] | 100 | 90 | 100 | 90 | 100 | 80 | 60 | 90
Cc1cc(C)c(C2=C(OC(=O)C(C)(C)C)CC(CC3CCCOC3)C2=O)c(C)c1 (centres unmarked) [Compound P37] | 100 | 100 | 70 | 70 | 90 | 90 | 90 | 90
CC(=O)OC1=C(c2c(C)cc(C)cc2C)C(=O)/C(=C/C2CCN(C(C)=O)C2)C1 (centres unmarked) [Compound P42] | 40 | 30 | 30 | 0 | 40 | 60 | 70 | 70
COC(=O)OC1=C(c2c(C)cc(C)cc2C)C(=O)C(CC2CCOCC2)C1 (centres unmarked) [Compound P45] | 100 | 100 | 100 | 100 | 100 | 100 | 90 | 100
Cc1cc(C)c(C2=C(OS(C)(=O)=O)C/C(=C\C3CCN(S(C)(=O)=O)C3)C2=O)c(C)c1 (centres unmarked) [Compound P46] | 90 | 70 | 100 | 60 | 80 | 90 | 70 | 90
CCSC(=O)OC1=C(c2c(C)cc(C)cc2C)C(=O)/C(=C/C2CCN(C(=O)SCC)C2)C1 (centres unmarked) [Compound P47] | 60 | 30 | 60 | 50 | 60 | 70 | 50 | 60
Cc1cc(C)c(C2=C(OC(=O)c3ccccc3)C/C(=C\C3CCN(C(=O)c4ccccc4)C3)C2=O)c(C)c1 (centres unmarked) [Compound P48] | 80 | 70 | 40 | 60 | 90 | 90 | 90 | 100
Cc1cc(C)c(C2=C(OC(=O)C(C)(C)C)CC(CC3COCCO3)C2=O)c(C)c1 (centres unmarked) [Compound P49] | 100 | 80 | 100 | 60 | 100 | 80 | 100 | 90
CON1CCC(CC2CC(OC(C)=O)=C(c3c(C)cc(C)cc3C)C2=O)CC1 (centres unmarked) [Compound P50] | 100 | 100 | 100 | 100 | 100 | 100 | 100 | 100
CON1CCC(CC2CC(OC(=O)C(C)(C)C)=C(c3c(C)cc(C)cc3C)C2=O)CC1 (centres unmarked) [Compound P51] | 100 | 100 | 100 | 100 | 100 | 100 | 100 | 100
Cc1cc(C)c(C2=C(OC(=O)OC(C)(C)C)C/C(=C\C3CCN(C(=O)OC(C)(C)C)CC3)C2=O)c(C)c1 [Compound P53] | 100 | 60 | 90 | 70 | 20 | 60 | 70 | 40
Cc1cc(C)c(C2=C(OC(=O)OC(C)(C)C)CC(CC3CCN(C(=O)OC(C)(C)C)CC3)C2=O)c(C)c1 (centres unmarked) [Compound P54] | 100 | 80 | 100 | 70 | 40 | 70 | 80 | 50
CON1CCC(CC2CC(OC(=O)c3ccccc3)=C(c3c(C)cc(C)cc3C)C2=O)CC1 (centres unmarked) [Compound P55] | 100 | 100 | 100 | 90 | 100 | 90 | 100 | 100
Cc1cc(C)c(C2=C(OC(=O)C3CC3)CC(CC3CCN(C(=O)C4CC4)C3)C2=O)c(C)c1 (centres unmarked) [Compound P57] | 60 | 50 | 30 | 70 | 60 | 80 | 70 | 80
Cc1cc(C)c(C2=C(OC(=O)C(C)C)CC(CC3CCN(C(=O)C(C)C)C3)C2=O)c(C)c1 (centres unmarked) [Compound P58] | 80 | 70 | 80 | 70 | 90 | 90 | 70 | 90
Cc1cc(C)c(C2=C(OC(=O)C(C)(C)C)CC(CC3CCN(C(=O)C(C)(C)C)C3)C2=O)c(C)c1 (centres unmarked) [Compound P59] | 80 | 50 | 70 | 30 | 80 | 90 | 70 | 80
Cc1cc(C)c(C2=C(OC(=O)C(C)(C)CCl)CC(CC3CCN(C(=O)C(C)(C)CCl)C3)C2=O)c(C)c1 (centres unmarked) [Compound P60] | 80 | 30 | 50 | 0 | 70 | 80 | 40 | 80
Cc1cc(C)c(C2=C(OC(=O)c3cccs3)CC(CC3CCN(C(=O)c4cccs4)C3)C2=O)c(C)c1 (centres unmarked) [Compound P61] | 90 | 50 | 80 | 30 | 90 | 90 | 90 | 90
